Measurements: patent US8716530B2, “Facially amphiphilic polyaryl and polyarylalkynyl polymers and oligomers and uses thereof” (The Trustess of the University of Pennsylvania, priority 2004, dated 2014)
In brackets after ≈: the same amount, converted by molar mass. Several values for one entry are separate records, joined by “and”; a condition that tells them apart may be missing. Equal entries are not always repeated. Where two headings read alike, the source gives them in different places.

How the values were obtained:
Candida albicans = experiment: MIC100, clinical isolates of hospital-acquired pathogens (Table 7); format: cell-based; conditions: one table line per isolate, RPMI synthetic medium, in µg/mL
Enterococcus faecalis = experiment: as above; format: cell-based; conditions: control strain ATCC 29212
Haemophilus influenzae = experiment: as above; format: cell-based; conditions: Mueller Hinton+NAD+yeast extract+hematin
Streptococcus pyogenes = experiment: as above; format: cell-based; conditions: Mueller Hinton+2-5% lysed horse blood, in µg/mL
Streptococcus pneumoniae = experiment: as above; format: cell-based; conditions: for mic (MIC100) Streptococcus pneumoniae: clinical isolates, no phenotype given; for mic (MIC100) Streptococcus pneumoniae / mic (MIC100) Streptococcus pneumoniae PEN-R: Mueller Hinton+2-5% lysed horse blood, in µg/mL; for mic (MIC100) Streptococcus pneumoniae ATCC 49619: control strain ATCC 49619; for mic (MIC100) Streptococcus pneumoniae PEN-R: penicillin-resistant clinical isolates
Aspergillus fumigatus = experiment: Antifungal MIC/MFC, NCCLS M38-A; format: cell-based
Experimental: (§1) MIC endpoints were determined for A. fumigatus, P. funiculosum, C. globosum and T. virens according to current NCCLS guidelines defined for testing A. fumigatus (NCCLS M38-A, 2002). […] Amphotericin B was included in the screen with C. albicans as a positive control. All MIC testing was done in 96 well microtiter panels using RPMI 1640 (with glutamine and without bicarbonate) broth as a growth media. Incubation was at 35° C., and growth was read at 48, 72, (and for some slow growing fungal species, 96 hours). […] MFC (minimal fungicidal concentrations) endpoints were calculated using a modified methodology based on the NCCLS defined methodology for measuring minimal bactericidal concentrations (MBC). Experimentation to calculate MFCs was undertaken only for those organisms for which an MIC endpoint was satisfactorily calculated. MFCs are defined as the concentration required to reduce the number of viable organisms by at least 90%.

Chaetomium globosum = experiment: Antifungal MIC/MFC, NCCLS M38-A; format: cell-based
Experimental: as §1

Penicillium funiculosum = experiment: Antifungal MIC/MFC, NCCLS M38-A; format: cell-based
Experimental: as §1

Trichoderma virens = experiment: Antifungal MIC/MFC, NCCLS M38-A; format: cell-based
Experimental: as §1

S. aureus = format: cell-based; conditions: S. aureus passaged at 0.5x MIC100; by passage 16 (17 consecutive passages)
E. coli [1] = experiment: Modified NCCLS microbroth dilution MIC assay; format: cell-based; conditions: Escherichia coli; for MIC: 18 to 20 hours incubation, OD 600 nm
human erythrocytes = experiment: Hemolysis of human erythrocytes (HC50); conditions: for Hemolysis HC50: one hour incubation, 50% hemoglobin release, Table 1
B. subtilis = experiment: Modified NCCLS microbroth dilution MIC assay; conditions: Bacillus subtilis; for MIC: read-out: B. subtilis MIC
E. coli [2] = experiment: MIC100, modified NCCLS microbroth dilution (Table 6); format: cell-based; conditions: Escherichia coli
[3] = system: S. aureus and methicillin-resistant S. aureus (MRSA); experiment: as above; format: cell-based; conditions: Staphylococcus aureus
B. anthracis = experiment: microbe, parasite or virus in culture; format: cell-based, Bacillus anthracis
Y. pestis = experiment: microbe, parasite or virus in culture; format: cell-based; conditions: Yersinia pestis, 30 h, read-out: MIC100 Y. pestis (30 hr)
[4] = concentration reducing viable organisms by at least 90%

In the case of C[C@@H]1[C@H](O)[C@@H](C)/C=C/C=C/C=C/C=C/C=C/C=C/C=C/[C@H](O[C@@H]2O[C@H](C)[C@@H](O)[C@H](N)[C@@H]2O)C[C@@H]2O[C@](O)(C[C@@H](O)C[C@@H](O)[C@H](O)CC[C@@H](O)C[C@@H](O)CC(=O)O[C@H]1C)C[C@H](O)[C@H]2C(=O)O [AMP B, amphotericin B], the “mic (MIC100) Candida albicans” value (Candida albicans) is reported as 2.

In the case of CN[C@H](CC(C)C)C(=O)N[C@H]1C(=O)N[C@@H](CC(N)=O)C(=O)N[C@H]2C(=O)N[C@H]3C(=O)N[C@H](C(=O)N[C@H](C(=O)O)c4cc(O)cc(O)c4-c4cc3ccc4O)[C@H](O)c3ccc(c(Cl)c3)Oc3cc2cc(c3O[C@@H]2O[C@H](CO)[C@@H](O)[C@H](O)[C@H]2O[C@H]2C[C@](C)(N)[C@H](O)[C@H](C)O2)Oc2ccc(cc2Cl)[C@H]1O [VANCO, vancomycin], the “mic (MIC100) Candida albicans” value (Candida albicans) is reported as over 32, the mic (MIC100) Enterococcus faecalis ATCC 29212 (Enterococcus faecalis) is reported as 4 µg/mL and the “mic (MIC100) Haemophilus influenzae” value (Haemophilus influenzae; in µg/mL) is reported as over 32. For the same molecule, the “mic (MIC100) Streptococcus pyogenes” value (Streptococcus pyogenes) was 0.5, the “mic (MIC100) Streptococcus pneumoniae” value (Streptococcus pneumoniae) was 0.5 and the mic (MIC100) Streptococcus pneumoniae ATCC 49619 (Streptococcus pneumoniae) was 0.5 µg/mL. The “mic (MIC100) Streptococcus pneumoniae PEN-R” value (Streptococcus pneumoniae) was 0.5 and 1.

In the case of OC(Cn1cncn1)(Cn1cncn1)c1ccc(F)cc1F [Fluconazole, reference compound], the “MIC Aspergillus fumigatus” value (Aspergillus fumigatus; RPMI 1640, 35° C.) is reported as >32/>32, the “MFC Aspergillus fumigatus” value (Aspergillus fumigatus; [4]) is reported as >32/>32 and the “MIC Chaetomium globosum” value (Chaetomium globosum; RPMI 1640, 35° C.) is reported as 0.25/0.25. For the same molecule, the “MFC Chaetomium globosum” value (Chaetomium globosum; [4]) was 0.25/0.25, the MIC Penicillium funiculosum (Penicillium funiculosum; RPMI 1640, 35° C.) was 4 µg/mL (≈ 13.1 µM) and the MFC Penicillium funiculosum (Penicillium funiculosum; [4]) was over 32 µg/mL. The “MIC Trichoderma virens” value (Trichoderma virens; RPMI 1640, 35° C.) was >128/>128 and the “MFC Trichoderma virens” value (Trichoderma virens; [4]) was >128/>128.

With CCn1cc(C(=O)O)c(=O)c2cc(F)c(N3CCNCC3)cc21 [norfloxacin] the “increase in MIC on serial passage” value (S. aureus) was 160 fold.

CC(=O)NC[C@H]1CN(c2ccc(N3CCOCC3)c(F)c2)C(=O)O1 [LINEZOLID, linezolid] was tested, and the “mic (MIC100) Candida albicans” value (Candida albicans) was over 8, the mic (MIC100) Enterococcus faecalis ATCC 29212 (Enterococcus faecalis) was 2 µg/mL and the “mic (MIC100) Haemophilus influenzae” value (Haemophilus influenzae; in µg/mL) was >8 and 8. The “mic (MIC100) Streptococcus pyogenes” value (Streptococcus pyogenes) was 1, the “mic (MIC100) Streptococcus pneumoniae” value (Streptococcus pneumoniae) was 1 and the mic (MIC100) Streptococcus pneumoniae ATCC 49619 (Streptococcus pneumoniae) was 1 µg/mL. For the same molecule, the “mic (MIC100) Streptococcus pneumoniae PEN-R” value (Streptococcus pneumoniae) was 0.5 and 1.

In the case of NCCNC(=O)c1cc(Br)cc(C#Cc2cccc(C#Cc3cc(Br)cc(C(=O)NCCN)c3)c2)c1 [Compound 4], the MIC (E. coli [1]) is reported as 50 µg/mL (≈ 82.2 µM), the “Hemolysis HC50” value (human erythrocytes; human erythrocytes) is reported as 12.5 µg/mL and the MIC (B. subtilis) is reported as 25 µg/mL (≈ 41.1 µM).

In the case of CCCCCOc1c(I)cc(CNC(=N)N)cc1C#Cc1cccc(C#Cc2cc(CNC(=N)N)cc(I)c2OCCCCC)c1 [Compound 6], the MIC (E. coli [1]) is reported as 6.4 µg/mL (≈ 7.58 µM), the “Hemolysis HC50” value (human erythrocytes; human erythrocytes) is reported as 5 µg/mL and the MIC (B. subtilis) is reported as 3.2 µg/mL (≈ 3.79 µM).

With N=C(N)NCCc1cc(Br)cc(C#Cc2cccc(C#Cc3cc(Br)cc(CCNC(=N)N)c3)c2)c1 [Compound 2] the MIC90 (E. coli [1]; read-out: MIC90 E. Coli) was 1.6 µg/mL (≈ 2.64 µM), the MIC (E. coli [1]) was 3.2 µg/mL (≈ 5.28 µM) and the “Hemolysis HC50” value (human erythrocytes; human erythrocytes) was 8 µg/mL. The HC50 (human erythrocytes; human erythrocytes, Table 2) was 8.5 µg/mL, the “Selectivity HC50/MIC E.coli” value (human erythrocytes; ratio of HC50 to E. coli MIC) was 5.3 and the MIC (B. subtilis) was 1.6 µg/mL (≈ 2.64 µM). For the same molecule, the MIC90 (B. subtilis; read-out: MIC90 B. subtilis) was 1.6 µg/mL (≈ 2.64 µM).

For NCC[C@H](O)C(=O)N[C@@H]1C[C@H](N)[C@@H](O[C@H]2O[C@H](CN)[C@@H](O)[C@H](O)[C@H]2O)[C@H](O)[C@H]1O[C@H]1O[C@H](CO)[C@@H](O)[C@H](N)[C@H]1O [Amikacin, amikacin, reference compound], the MIC (E. coli [2]; strain ATCC25922, read-out: MIC100 E. coli ATCC25922) was 1 µg/mL (≈ 1.71 µM), the MIC (E. coli [2]; strain OC2530, read-out: MIC100 E. coli OC2530) was 2 µg/mL (≈ 3.42 µM) and the MIC ([3]; ATCC 29213 / MRSA, strain ATCC29213 (Table 6), read-out: MIC100 S. aureus ATCC29213) was 2 µg/mL (≈ 3.42 µM). For the same molecule, the MIC ([3]; MRSA, methicillin-resistant S. aureus OC2878, read-out: MIC100 MRSA OC2878) was 64 µg/mL (≈ 109 µM).

In the case of CCCCCOc1c(I)cc(CN)cc1C#Cc1cccc(C#Cc2cc(CN)cc(I)c2OCCCCC)c1 [Compound 5], the MIC (E. coli [1]) is reported as 25 µg/mL (≈ 32.9 µM), the “Hemolysis HC50” value (human erythrocytes; human erythrocytes) is reported as under 12.5 µg/mL and the MIC (B. subtilis) is reported as 100 µg/mL (≈ 131 µM).

For O=C(O)c1cn(C2CC2)c2cc(N3CCNCC3)c(F)cc2c1=O [Ciprofloxacin, ciprofloxacin, reference compound], the MIC (B. anthracis; Bacillus anthracis, 24 h, read-out: MIC100 B. anthracis (24 hr)) was 0.125 to 0.25 µg/mL (≈ 0.377 to 0.754 µM), the “Time course of growth inhibition of Bacillus anthracis” value (B. anthracis; growth recorded at 2 hour intervals over 24 hours (FIG. 3)) was “transient cell growth was observed at early time points” and the MIC (Y. pestis) was 0.0312 µg/mL (≈ 0.0942 µM). For the same molecule, the “increase in MIC on serial passage” value (S. aureus) was 125 fold.

In the case of C[C@H]1COc2c(N3CCN(C)CC3)c(F)cc3c(=O)c(C(=O)O)cn1c23 [LEVOFLOX, levofloxacin], the “mic (MIC100) Candida albicans” value (Candida albicans) is reported as over 8, the mic (MIC100) Enterococcus faecalis ATCC 29212 (Enterococcus faecalis) is reported as 0.5 µg/mL and the “mic (MIC100) Haemophilus influenzae” value (Haemophilus influenzae) is reported as “≦0.03”. For the same molecule, the “mic (MIC100) Streptococcus pyogenes” value (Streptococcus pyogenes) was 0.25 and 0.5, the “mic (MIC100) Streptococcus pneumoniae” value (Streptococcus pneumoniae) was 1 and 0.5 and the mic (MIC100) Streptococcus pneumoniae ATCC 49619 (Streptococcus pneumoniae) was 0.5 µg/mL. For the same molecule, the “mic (MIC100) Streptococcus pneumoniae PEN-R” value (Streptococcus pneumoniae) was 0.5.
